# According to patent US20190292521A1, “COMPOSITION FOR PROMOTING GROWTH OF STEM CELLS COMPRISING PHYTOSPHINGOSINE-1-PHOSPHATE OR DERIVATIVES THEREOF, AND COMPOSITION FOR CULTURING MEDIA OF STEM CELLS COMPRISING SAME” (AXCESO BIOPHARMA CO., LTD., priority 2016, published 2019):
# Where two headings read alike, the source gives them in different places.
# Columns and labels:
# Format in all cases: cell-based
# [1] = system: Human mesenchymal stem cells; experiment: Measurement of stem cell proliferation capacity (Ez-Cytox, absorbance 450 nm); conditions: 1 uM; for increase of proliferation effect: cultured for 7 days, vs control without compound; for proliferation of stem cells: human mesenchymal stem cells, FIG. 1
# Experimental: (§1) Human mesenchymal stem cells were cultured in DMEM medium (Invitrogen) containing 10% fetal bovine serum and 1% penicillin/streptomycin at 37° C. under 5% CO2, and the medium was changed every 3 days. After culturing the cells for 24 hours, P1P, cyclic P1P, and NAPS-1-P were dissolved in DMSO (Sigma) to a concentration of 2 mM, and appropriately diluted and added to the medium such that the final concentration was 1 μM. The absorbance was measured at 450 nm using Ez-Cytox at 24 hours (1 day), 48 hours (2 days), 120 hours (5 days) and 168 hours (7 days) after the addition, and the proliferation capacity of the stem cells according to P1P, cyclic P1P and NAPS-1 were measured. For the control group, an experiment was performed under the same conditions as above except that P1P, cyclic P1P and NAPS-1-P were not included.
# [2] = system: human-derived adipose stem cells; experiment: Growth promoting capacity on human-derived adipose stem cells; conditions: cultured for 2 days, different concentrations; optimal effect at 10 nM and 100 nM, FIG. 2
# Experimental: as §1
# In addition, the growth promoting-capacity of human-derived adipose stem cells was examined.
# [3] = system: human-derived adipose stem cells; experiment: Viability of stem cells with oxidative stress induced by hydrogen peroxide (H2O2); conditions: 6 hours after H2O2
# Experimental: Human-derived adipose stem cells were cultured in DMEM medium containing 10% fetal bovine serum and 1% penicillin/streptomycin at 37° C. under 5% CO2. After culturing the cells for 24 hours, P1P, cP1P and NAPS-1-P were dissolved in DMSO to a concentration of 2 mM, and appropriately diluted and added to the medium such that the final concentrations were 10 nM, 100 nM, 1000 nM. After 1 hour of culture, 350 μM of H2O2 was added to the stem cells and cultured. After 6 hours, the absorbance was measured at 450 nm using Ez-Cytox, and the effect of P1P and derivatives thereof on the viability of stem cells against oxidative stress was measured. For the control group, an experiment was performed under the same conditions as above except that P1P, cyclic P1P, and NAPS-1-P were not included.
# [4] = system: human-derived adipose stem cells; experiment: Stem cell viability according to concentration of fetal bovine serum (serum-free or low-serum medium); conditions: read-out: viability as compared with 10% fetal bovine serum
# Experimental: Human-derived adipose stem cells were cultured in DMEM medium having different concentrations of fetal bovine serum at 37° C. under 5% CO2. After culturing for 24 hours, the cells were washed twice with PBS at 37° C. to remove the serum components. Then, the cells were cultured in new DMEM medium containing 1 μM P1P and 1% fetal bovine serum. After 4 days, the absorbance was measured at 450 nm using an Ez-Cytox Cell Viability Assay Kit (Daeil Biotech) to measure the viability of stem cells according the concentration of fetal bovine serum and P1P. For the control group, an experiment was performed under the same conditions as above except that P1P was not included.
# [5] = system: human-derived adipose stem cells; experiment: Osteogenic differentiation capacity (Alizarin Red S staining); conditions: osteogenic differentiation medium
# Experimental: Human-derived adipose stem cells were cultured in DMEM medium containing 10% fetal bovine serum and 1% penicillin/streptomycin at 37° C. under 5% CO2. After 24 hours of culture, P1P and derivatives thereof were diluted with the medium and added. After 24 hours of culture, the medium was replaced with a differentiation medium and changed with a differentiation medium every 3 days. The cells were cultured in alpha-DEM medium containing 10% fetal bovine serum, 10 nM dexamethasone, 0.2 mM ascorbic acid, 10 mM beta-glycerol phosphate and 1% penicillin/streptomycin at 37° C. under 5% CO2 as a composition for the differentiation medium. After 2 to 4 weeks, the stem cells were fixed and stained with Alizarin Red S. After removing the stem cell culture medium, the cells were washed 3 times with PBS, and after removal of PBS, the cells were fixed using 4% formaldehyde solution for 20 minutes at room temperature. After washing the cells 3 times with PBS, the cells were treated with a 2% Alizarin Red S solution for 20 minutes. […] For the control group, an experiment was performed under the same conditions as above except that P1P, cyclic P1P, and NAPS-1-P were not included.
# [6] = fetal bovine serum reduced to 2%
Compound,increase of proliferation effect [1] [fold],proliferation of stem cells [1],cell growth / proliferation effect [2],Cell viability (%) by H2O2 treatment (350 uM) ([3]; compound 10 nM) [%],Cell viability (%) by H2O2 treatment (350 uM) ([3]; compound 100 nM) [%],Cell viability (%) by H2O2 treatment (350 uM) ([3]; compound 1000 nM) [%],"viability at 1 µM [4, 6] [%]",viability at 1 µM ([4]; serum-free medium) [%],osteogenic differentiation capacity [5]
"CCCCCCCCCCCCCC[C@@H](O)[C@@H](O)[C@H](COP(=O)(O)O)NC(C)=O [NAPS-1-P, N-acetyl phytosphingosine-1-phosphate]",2,promoted the proliferation of stem cells to a similar level,showed a higher proliferation effect,75,83,86,70 to 80,~50,–
"CCCCCCCCCCCCCC[C@@H](O)[C@H]1OP(=O)(O)OC[C@@H]1N [cP1P, O-cyclic P1P]",2,promoted the proliferation of stem cells to a similar level,showed a higher proliferation effect,77,84,86,70 to 80,~50,remarkably improved
